Experimental data as given in ChEMBL document CHEMBL1139217, “Development of dihydropyridone indazole amides as selective Rho-kinase inhibitors” (J Med Chem, 2007).

How the values were obtained:
[1] = molecular target: Rho-associated protein kinase 1 (Homo sapiens, UniProt Q13464); assay: Inhibition of human recombinant ROCK1 expressed in Sf9 cells […]
[2] = molecular target: Ribosomal protein S6 kinase beta-1 (Homo sapiens, UniProt P23443); assay: Inhibition of p70S6K
[3] = molecular target: Ribosomal protein S6 kinase alpha-1 (Homo sapiens, UniProt Q15418); assay: Inhibition of RSK1
Sequence of Ribosomal protein S6 kinase alpha-1 (Q15418 whole entry): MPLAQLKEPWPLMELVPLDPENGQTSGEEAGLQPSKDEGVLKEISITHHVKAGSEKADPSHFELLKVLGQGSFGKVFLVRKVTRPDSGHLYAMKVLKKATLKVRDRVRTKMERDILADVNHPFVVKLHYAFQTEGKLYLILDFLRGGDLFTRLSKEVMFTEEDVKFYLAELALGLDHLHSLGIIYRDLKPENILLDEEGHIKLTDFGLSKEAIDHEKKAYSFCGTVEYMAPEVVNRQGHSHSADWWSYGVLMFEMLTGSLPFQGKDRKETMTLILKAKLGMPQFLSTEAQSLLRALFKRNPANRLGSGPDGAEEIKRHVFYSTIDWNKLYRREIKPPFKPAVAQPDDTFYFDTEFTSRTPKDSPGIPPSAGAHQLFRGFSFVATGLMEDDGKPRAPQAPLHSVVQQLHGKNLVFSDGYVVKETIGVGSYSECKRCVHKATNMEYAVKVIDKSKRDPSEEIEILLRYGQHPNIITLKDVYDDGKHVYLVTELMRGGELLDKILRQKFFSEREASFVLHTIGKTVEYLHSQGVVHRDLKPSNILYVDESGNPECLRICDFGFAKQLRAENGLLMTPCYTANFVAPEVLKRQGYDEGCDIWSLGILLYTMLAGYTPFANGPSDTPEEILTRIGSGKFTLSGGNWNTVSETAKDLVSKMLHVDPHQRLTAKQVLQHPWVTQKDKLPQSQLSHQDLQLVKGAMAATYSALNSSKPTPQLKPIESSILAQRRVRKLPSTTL

[4] = Cmax in Sprague-Dawley rat at 1.3 mg/kg, iv; assay type: ADME, organism-based; parameters: dose 1.3 mg/kg, route intravenous; conditions: in vivo
[5] = Clearance in Sprague-Dawley rat; assay type: ADME, organism-based; conditions: in vivo
Thoracic aorta = assay: Dilatory activity against phenylephrine-induced contraction of Sprague-Dawley rat thoracic aorta; assay type: functional, tissue-based
[6] = Clearance in Sprague-Dawley rat at 1.3 mg/kg; assay type: ADME, organism-based; parameters: dose 1.3 mg/kg; conditions: in vivo
[7] = Oral bioavailability in Sprague-Dawley rat at 1.3 mg/kg, po; assay type: ADME, organism-based; conditions: in vivo
[8] = Half life in Sprague-Dawley rat at 1.3 mg/kg; assay type: ADME, organism-based; parameters: dose 1.3 mg/kg; conditions: in vivo
[9] = Volume of distribution in Sprague-Dawley rat at 1.3 mg/kg; assay type: ADME, organism-based; parameters: dose 1.3 mg/kg; conditions: in vivo, read-out: Vdss
[10] = Volume of distribution in Sprague-Dawley rat at 1.6 mg/kg; assay type: ADME, organism-based; parameters: dose 1.6 mg/kg; conditions: in vivo, read-out: Vdss
[11] = Cmax in Sprague-Dawley rat at 1.6 mg/kg, iv; assay type: ADME, organism-based; parameters: dose 1.6 mg/kg, route intravenous; conditions: in vivo
[12] = Clearance in Sprague-Dawley rat at 1.6 mg/kg; assay type: ADME, organism-based; parameters: dose 1.6 mg/kg; conditions: in vivo
[13] = Half life in Sprague-Dawley rat at 1.6 mg/kg; assay type: ADME, organism-based; parameters: dose 1.6 mg/kg; conditions: in vivo
[14] = Oral bioavailability in Sprague-Dawley rat at 1.6 mg/kg, po; assay type: ADME, organism-based; conditions: in vivo
[15] = Volume of distribution in Sprague-Dawley rat at 1.7 mg/kg; assay type: ADME, organism-based; parameters: dose 1.7 mg/kg; conditions: in vivo, read-out: Vdss
[16] = Half life in Sprague-Dawley rat at 1.7 mg/kg; assay type: ADME, organism-based; parameters: dose 1.7 mg/kg; conditions: in vivo
[17] = Oral bioavailability in Sprague-Dawley rat at 1.7 mg/kg, po; assay type: ADME, organism-based; conditions: in vivo
[18] = Cmax in Sprague-Dawley rat at 1.7 mg/kg, iv; assay type: ADME, organism-based; parameters: dose 1.7 mg/kg, route intravenous; conditions: in vivo
[19] = Clearance in Sprague-Dawley rat at 1.7 mg/kg; assay type: ADME, organism-based; parameters: dose 1.7 mg/kg; conditions: in vivo
[20] = Volume of distribution in Sprague-Dawley rat at 0.9 mg/kg; assay type: ADME, organism-based; parameters: dose 0.9 mg/kg; conditions: in vivo, read-out: Vdss
[21] = Clearance in Sprague-Dawley rat at 0.9 mg/kg; assay type: ADME, organism-based; parameters: dose 0.9 mg/kg; conditions: in vivo
[22] = Oral bioavailability in Sprague-Dawley rat at 0.9 mg/kg, po; assay type: ADME, organism-based; conditions: in vivo
[23] = Cmax in Sprague-Dawley rat at 0.9 mg/kg, iv; assay type: ADME, organism-based; parameters: dose 0.9 mg/kg, route intravenous; conditions: in vivo
[24] = Half life in Sprague-Dawley rat at 0.9 mg/kg; assay type: ADME, organism-based; parameters: dose 0.9 mg/kg; conditions: in vivo
[25] = Volume of distribution in Sprague-Dawley rat at 1.8 mg/kg; assay type: ADME, organism-based; parameters: dose 1.8 mg/kg; conditions: in vivo, read-out: Vdss
[26] = Half life in Sprague-Dawley rat at 1.8 mg/kg; assay type: ADME, organism-based; parameters: dose 1.8 mg/kg; conditions: in vivo
[27] = Plasma concentration in spontaneously hypertensive rat at 3 mg/kg after 24 hrs; assay type: ADME, organism-based; parameters: dose 3 mg/kg
[28] = Plasma concentration in spontaneously hypertensive rat at 3 mg/kg after 1 hr; assay type: ADME, organism-based; parameters: dose 3 mg/kg
[29] = Plasma concentration in spontaneously hypertensive rat at 3 mg/kg after 2 hrs; assay type: ADME, organism-based; parameters: dose 3 mg/kg
[30] = Clearance in Sprague-Dawley rat at 1.8 mg/kg; assay type: ADME, organism-based; parameters: dose 1.8 mg/kg; conditions: in vivo
[31] = Cmax in Sprague-Dawley rat at 1.8 mg/kg, iv; assay type: ADME, organism-based; parameters: dose 1.8 mg/kg, route intravenous; conditions: in vivo
[32] = Oral bioavailability in Sprague-Dawley rat at 1.8 mg/kg, po; assay type: ADME, organism-based; conditions: in vivo
[33] = Plasma concentration in spontaneously hypertensive rat at 3 mg/kg after 0.5 hrs; assay type: ADME, organism-based; parameters: dose 3 mg/kg
[34] = Plasma concentration in spontaneously hypertensive rat at 3 mg/kg after 8 hrs; assay type: ADME, organism-based; parameters: dose 3 mg/kg
[35] = Plasma concentration in spontaneously hypertensive rat at 3 mg/kg after 4 hrs; assay type: ADME, organism-based; parameters: dose 3 mg/kg
Rattus norvegicus = assay: Decrease in mean arterial pressure in spontaneously hypertensive rat at 3 mg/kg, po; assay type: functional, organism-based; parameters: dose 3 mg/kg; conditions: Artery

Sequence of Ribosomal protein S6 kinase beta-1 (P23443 whole entry): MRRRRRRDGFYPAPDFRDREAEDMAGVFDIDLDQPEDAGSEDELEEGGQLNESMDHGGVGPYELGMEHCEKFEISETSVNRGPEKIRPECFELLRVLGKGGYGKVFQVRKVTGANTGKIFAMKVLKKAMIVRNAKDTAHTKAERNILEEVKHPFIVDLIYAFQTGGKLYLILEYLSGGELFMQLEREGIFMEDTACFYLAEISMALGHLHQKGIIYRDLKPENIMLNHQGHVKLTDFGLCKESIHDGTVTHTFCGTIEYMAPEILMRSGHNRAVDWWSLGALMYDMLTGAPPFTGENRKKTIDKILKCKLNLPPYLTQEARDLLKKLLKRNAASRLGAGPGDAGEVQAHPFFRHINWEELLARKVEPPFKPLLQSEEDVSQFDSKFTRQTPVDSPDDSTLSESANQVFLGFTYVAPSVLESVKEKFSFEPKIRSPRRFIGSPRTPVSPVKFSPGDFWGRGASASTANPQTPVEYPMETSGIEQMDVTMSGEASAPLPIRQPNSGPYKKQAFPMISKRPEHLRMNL
Sequence of Rho-associated protein kinase 1 (Q13464 whole entry): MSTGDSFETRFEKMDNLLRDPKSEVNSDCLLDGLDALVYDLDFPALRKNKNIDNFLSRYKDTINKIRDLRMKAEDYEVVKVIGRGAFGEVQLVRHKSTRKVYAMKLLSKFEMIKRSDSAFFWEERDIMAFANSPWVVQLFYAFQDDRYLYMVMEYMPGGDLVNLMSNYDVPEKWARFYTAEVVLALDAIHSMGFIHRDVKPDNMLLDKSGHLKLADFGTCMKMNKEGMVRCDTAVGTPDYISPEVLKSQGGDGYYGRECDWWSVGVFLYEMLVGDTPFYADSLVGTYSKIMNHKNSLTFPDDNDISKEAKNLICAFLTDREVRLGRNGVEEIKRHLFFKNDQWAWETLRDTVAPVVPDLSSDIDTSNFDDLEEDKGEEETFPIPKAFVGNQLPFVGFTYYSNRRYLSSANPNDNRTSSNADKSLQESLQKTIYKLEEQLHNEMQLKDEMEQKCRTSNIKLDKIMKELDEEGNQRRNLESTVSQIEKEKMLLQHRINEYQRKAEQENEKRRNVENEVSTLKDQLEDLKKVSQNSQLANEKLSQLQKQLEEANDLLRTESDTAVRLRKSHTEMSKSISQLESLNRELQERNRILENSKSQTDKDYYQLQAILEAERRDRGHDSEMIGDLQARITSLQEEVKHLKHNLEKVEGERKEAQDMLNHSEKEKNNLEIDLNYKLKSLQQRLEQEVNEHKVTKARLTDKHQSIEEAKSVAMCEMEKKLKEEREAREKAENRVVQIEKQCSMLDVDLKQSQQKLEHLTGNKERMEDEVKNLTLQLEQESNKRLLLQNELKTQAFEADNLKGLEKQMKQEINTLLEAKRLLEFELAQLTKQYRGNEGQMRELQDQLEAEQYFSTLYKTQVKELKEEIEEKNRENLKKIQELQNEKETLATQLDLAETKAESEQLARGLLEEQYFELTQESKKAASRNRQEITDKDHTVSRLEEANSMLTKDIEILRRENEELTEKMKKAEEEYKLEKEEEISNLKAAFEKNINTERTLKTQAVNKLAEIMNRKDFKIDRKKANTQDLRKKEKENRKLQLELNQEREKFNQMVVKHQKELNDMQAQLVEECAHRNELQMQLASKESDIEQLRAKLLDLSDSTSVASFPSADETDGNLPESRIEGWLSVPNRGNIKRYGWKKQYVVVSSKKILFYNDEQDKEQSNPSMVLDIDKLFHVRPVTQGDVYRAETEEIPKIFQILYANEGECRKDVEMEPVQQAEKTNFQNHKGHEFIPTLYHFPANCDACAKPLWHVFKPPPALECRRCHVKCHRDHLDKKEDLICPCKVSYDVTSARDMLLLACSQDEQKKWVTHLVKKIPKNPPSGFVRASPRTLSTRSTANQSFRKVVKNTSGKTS

| SMILES | IC50 [1] [nM] | IC50 [2] [nM] | IC50 [3] [nM] | Vd [20] [L/kg] | clearance [21] [mL/min/kg] | bioavailability [22] [%] | Cmax [23] [ng/mL] | half-life [24] [min] | IC50 (Thoracic aorta) [nM] | other results |
| --- | --- | --- | --- | --- | --- | --- | --- | --- | --- | --- |
| CC1=C(C(=O)Nc2ccc3[nH]ncc3c2)C(c2ccc(F)cc2)NC(=O)N1 (stereo unspecified) [GSK-180736A] | 14 | 2850 | 3100 |  |  |  |  |  | 760 | Cmax [4]: 567 ng/mL; clearance [5]: 50 mL/min/kg |
| CC1=C(C(=O)Nc2ccc3[nH]ncc3c2)C(c2ccc(F)cc2)CC(=O)N1 (stereo unspecified) | 51 | 1100 | 1410 |  |  |  |  |  | 200 | Vd [10]: 2.1 L/kg; Cmax [11]: 668 ng/mL; clearance [12]: 47 mL/min/kg; half-life [13]: 60 min; bioavailability [14]: 14% |
| CC1=C(C(=O)Nc2ccc3[nH]ncc3c2)C(c2ccc3ccccc3c2)CC(=O)N1 (stereo unspecified) [GSK-270822A] | 9 | 1550 | 1100 |  |  |  |  |  | 76 | Vd [15]: 1.8 L/kg; half-life [16]: 54 min; bioavailability [17]: 13%; Cmax [18]: 700 ng/mL; clearance [19]: 45 mL/min/kg |
| CC1=C(C(=O)Nc2ccc3[nH]ncc3c2)C(c2ccc(C(F)(F)F)cc2)CC(=O)N1 (stereo unspecified) | 5 |  | 740 | 2.3 | 51 | 22 | 315 | 42 | 39 |  |
| CC1=C(C(=O)Nc2ccc3[nH]ncc3c2F)C(c2ccc(C(F)(F)F)cc2)CC(=O)N1 (stereo unspecified) | 2500 | > 10000 | > 10000 |  |  |  |  |  |  |  |
| CC1=C(C(=O)Nc2cc3cn[nH]c3cc2F)C(c2ccc(C(F)(F)F)cc2)CC(=O)N1 (stereo unspecified) | 14 | 1940 | 780 |  |  |  |  |  | 190 | Vd [25]: 1.4 L/kg; half-life [26]: 60 min; concentration at 24 h [27]: 2 ng/mL; concentration at 1 h [28]: 192 ng/mL; concentration at 2 h [29]: 190 ng/mL; clearance [30]: 25 mL/min/kg; Cmax [31]: 1560 ng/mL; bioavailability [32]: 61%; concentration at 0.5 h [33]: 193 ng/mL; concentration at 8 h [34]: 74 ng/mL; concentration at 4 h [35]: 110 ng/mL; Activity (Rattus norvegicus): Dose-dependent effect |

The next lines start with results.

| IC50 [1] [nM] | IC50 [2] [nM] | IC50 [3] [nM] | Vd [20] [L/kg] | clearance [21] [mL/min/kg] | bioavailability [22] [%] | Cmax [23] [ng/mL] | half-life [24] [min] | SMILES | IC50 (Thoracic aorta) [nM] | other results |
| --- | --- | --- | --- | --- | --- | --- | --- | --- | --- | --- |
| 9 | 4790 | 1950 |  |  |  |  |  | CC1=C(C(=O)Nc2ccc3[nH]nc(C)c3c2)C(c2ccc(C(F)(F)F)cc2)CC(=O)N1 (stereo unspecified) [GSK-466314A] | 130 | clearance [6]: 24 mL/min/kg; bioavailability [7]: 18%; half-life [8]: 120 min; Cmax [4]: 672 ng/mL; Vd [9]: 2.8 L/kg |
| 8 | 560 | 620 | 2.4 | 57 | 1 | 334 | 48 | CC1=C(C(=O)Nc2ccc3[nH]ncc3c2)C(c2ccc(Cl)c(Cl)c2)CC(=O)N1 (stereo unspecified) [GSK-299115A] |  |  |
| 8 | 590 | 90 | 3.9 | 81 | 29 | 424 | 72 | CC1=C(C(=O)Nc2cc(Cl)c3[nH]ncc3c2)C(c2ccc(C(F)(F)F)cc2)CC(=O)N1 (stereo unspecified) [GSK-466317A] |  |  |
